According to patent US20120165403A1, “METHODS OF INHIBITING THE ACTIVITY OF HSP90 AND/OR ARYL HYDROCARBON RECEPTOR” (UNIVERSITY OF ROCHESTER, priority 2004, published 2012):

What was measured:
[1] = tested on: TCDD-mediated CYP1A1 gene induction; experiment: CYP1A1 expression by Western blot in Hepa1c1c7 cells; assay type: cell-based, mouse
Description: Mouse hepatoma cells, Hepa1c1c7 (Hepa), and BP^rCl cells were maintained in modified Eagle's medium (Sigma) supplemented with 10% heat-inactivated fetal bovine serum, sodium pyruvate, L-glutamine, sodium bicarbonate, and Gentamicin (MEM+), at 37° C. in a humid atmosphere with 5% CO2. BP^rCl cells are a derivative of Hepa1c1c7 cells that lack ARNT protein expression and function (Probst et al., Mol. Pharmacol. 44:511-518 (1993), which is hereby incorporated by reference in its entirety). Upon reaching 90% confluency, cells were harvested and homogenized in HEDG buffer (25 mM HEPES, 1.5 mM Na2EDTA, 1 mM dithiothreitol, 10% (v/v) glycerol, pH 7.6) containing protease inhibitors (Roche Applied Science complete mini cocktail tablet, Indianapolis, Ind.). Both Hepa and BP^rC1 cytosols were prepared by centrifugation of the homogenate at 100,000 g for 45 min.
Hepa cells were plated onto 6-well plates at a density of 5×10^5 cells/well and incubated overnight at 37° C. Cells were treated with vehicle (DMSO), TCDD (150 pM), EGCG, or EGCG in the presence of TCDD (150 pM) for 4 hrs. Cells were lysed (0.2% Triton, 5 mM EDTA in PBS) and total protein quantified using the Coomassie Plus Protein Assay Reagent (Pierce, Rockford, Ill.). Protein (30 μg) was separated by SDS-PAGE (7.5% acrylamide resolving gel) and transferred to PVDF membrane (Millipore, Bedford, Mass.). […]

[2] = tested on: TCDD induced luciferase activity (human CYP1A1 promoter); experiment: Luciferase reporter gene assay in HepG2.101L cells; assay type: cell-based
Description: The human hepatoma cell line HepG2 were stably transfected with a luciferase expression vector downstream from exon one, a portion of intron one, and 1612 base pairs of the 5′-flanking sequence of the human CYP1A gene to generate the cell line HepG2.101L, as previously described (Postlind et al., Toxicol. Appl. Pharmacol 118:255-262 (1993), which is hereby incorporated by reference in its entirety). Cells were grown in Dulbecco's modified Eagle's medium (Mediatech Herndon, Va.) supplemented with 10% fetal bovine serum and Gentamicin (DMEM) at 37° C. in a humid atmosphere with 5% CO2. Treatment and reporter gene activity were assessed as previously described (Palermo et al., Chem. Res. Toxicol. 16:865-872 (2003), which is hereby incorporated by reference in its entirety) with the following changes: HepG2.101L cells were added to hydrated Cytodex™ microcarrier beads (Sigma) to achieve 1.5×10^6 cells per 30 mg beads per 10 ml DMEM. Luminescence was detected using the Packard Lumicount™ (Meriden, Conn.).

AhR [3] = assay type: biochemical, mouse
Description: Hepa cytosol (2.5 mg protein/ml) was incubated with a range of concentrations of EGCG (1-200 μM) or EGCG in the presence of 3 nM TCDD for 2 h at room temperature. Treated cytosols (21-25 μg) were mixed with nonspecific DNA (herring sperm), 0.08M NaCl, and 25,000-45,000 cpm of [^32P]-endlabeled oligonucleotide containing a single consensus DRE (Gasiewicz et al., Biochem. Pharmacol. 52:1787-1803 (1996), which is hereby incorporated by reference in its entirety). Samples were subjected to nondenaturing electrophoresis (4% acrylamide) and visualized using a Phosphoimager.

AhR [4] = experiment: AhR protein levels by western blotting in Hepa cells; assay type: cell-based, mouse; settings: over 12 hours
Description: Hepa cells were plated onto 6-well plates at a density of 5×10^5 cells/well and incubated overnight at 37° C. […] Cells were lysed (0.2% Triton, 5 mM EDTA in PBS) and total protein quantified using the Coomassie Plus Protein Assay Reagent (Pierce, Rockford, Ill.). Protein (30 μg) was separated by SDS-PAGE (7.5% acrylamide resolving gel) and transferred to PVDF membrane (Millipore, Bedford, Mass.). Membranes were probed with antibodies recognizing CYP1A1 (Xenotech, Lenexa, Kans.), AhR (Biomol, Plymouth Meeting, Pa.) and actin (Sigma). The secondary IgG antibodies were coupled to horseradish peroxidase (Jackson Immuno Research, West Grove, Pa.). Both primary and secondary antibodies were used at a dilution of 1:5000 in TBST (50 mM Tris, 300 mM NaCl, 0.5% Tween 20, pH 7.5) containing 5% milk. Proteins were visualized by chemiluminescence (KPL, Gaithersburg, Md.).

## O=C(O[C@@H]1Cc2c(O)cc(O)cc2O[C@@H]1c1cc(O)c(O)c(O)c1)c1cc(O)c(O)c(O)c1 [EGCG, epigallocatechin gallate]
[1]; EGCG alone, Western blot
  CYP1A1 gene induction, treatment alone: no effect on CYP1A1 gene induction
[1]; simultaneously with 150 pM TCDD
  inhibition of TCDD-mediated CYP1A1 gene induction: concentration-dependent inhibition
[2]; 500 pM TCDD, 4 h, read-out: IC50, inhibition of TCDD induced luciferase activity
  IC50: ~100 µM
[2]; EGCG alone
  induction of luciferase activity, treatment alone: did not induce luciferase activity significantly over background
AhR [3]; Hepa cytosol and extracts from treated whole cells, EGCG alone
  DRE binding, treatment alone: DRE binding was not observed
AhR [3]; Hepa cytosol, 100 μM EGCG, 3 nM TCDD, 2 h
  inhibition of TCDD-induced AhR-DRE binding: ~100%
AhR [3]; Hepa cytosol, EGCG 1-200 μM, 3 nM TCDD
  effect on the TCDD-AhR-DRE shifted band: concentration dependent decrease
AhR [4]; 200 μM EGCG with 150 pM TCDD
  effect on the TCDD-induced decrease of AhR levels: not exacerbated or prevented
AhR [4]; EGCG 200 μM or TCDD 150 pM
  AhR protein levels, treatment alone: not capable of inducing AhR degradation
